Measurements taken from article PMC11784839, “Monoaminergic neurotransmitters are bimodal effectors of tau aggregation” (Science Advances, 2025).

Target: tau (Homo sapiens, UniProt P10636)
Assay: MCE Phenols Library screening, tau biosensor cell seeding assay (AvZ)
Format: cell-based
Settings: for AvZ (average z score of seeding, SDs from the mean level of seeding): 10 μM phenol in cell cultures, AD brain homogenate preincubated 16 hours, two biological replicates, positive = catalyzes seeding, negative = inhibits; for Z repl 1 / Z Repl 2: Z score; for Z repl 1 / raw data 1: replicate 1; for Z Repl 2 / raw data 2: replicate 2
[1] = average Z score of the two replicates, tau seeding
[2] = average Z score of the two replicates, MCE Phenols Library screen
[3] = average puncta of the two replicates
[4] = average Z score of two replicates, Phenols Library screen

Chain of tau (P10636 623-695 limits assumed): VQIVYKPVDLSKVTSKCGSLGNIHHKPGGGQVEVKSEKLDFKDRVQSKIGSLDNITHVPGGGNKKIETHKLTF

| Compound | AvZ (average z score of seeding, SDs from the mean level of seeding) | Z repl 1 | Z Repl 2 | av puncta (average of raw data 1 and 2) | raw data 1 (puncta) | raw data 2 (puncta) | av Z [1] | av Z [2] | av puncta [3] | raw data 1 (raw puncta) | raw data 2 (raw puncta) | av Z [4] | AvZ (average z score of seeding, SDs from the mean level of seeding) (listed as 6-Hydroxy melatonin) | av Z (average Z score of the two replicates, tau biosensor seeding, MCE Phenols Library screen) |
| --- | --- | --- | --- | --- | --- | --- | --- | --- | --- | --- | --- | --- | --- | --- |
| CCc1cccc(C)c1O [2-Ethyl-6-methylphenol] | 0.167 | 0.346 | -0.011 | 21574.5 | 30502.1 | 12646.9 | – | – | – | – | – | – | – | – |
| COc1c(O[C@@H]2O[C@H](C(=O)O)[C@@H](O)[C@H](O)[C@H]2O)cc2oc(-c3ccccc3)cc(=O)c2c1O [Oroxylin A-7-O-glucuronide] | – | -0.296 | 0.55 | 20714.9 | 22792.7 | 18637 | 0.127 | – | – | – | – | – | – | – |
| COc1cc(/C=C/C(=O)O)cc(O)c1O [5-Hydroxyferulic acid] | -0.968 | -0.814 | -1.121 | 8685.03 | 16579.9 | 790.19 | – | – | – | – | – | – | – | – |
| Cc1cc(=O)c2c(O)cc(O)cc2o1 [Noreugenin] | – | -0.363 | -0.457 | – | – | – | – | -0.41 | 14938 | 21994.8 | 7881.17 | – | – | – |
| O=c1cc(O)cc(/C=C/c2ccc(O)c(O)c2)o1 [Hispidin] | – | 0.687 | -0.112 | 23081.7 | 34594.7 | 11568.8 | 0.287 | – | – | – | – | – | – | – |
| Cc1cc(O)cc(O)c1 [Orcinol] | -0.839 | -1.362 | -0.316 | 9697.38 | 9999.31 | 9395.45 | – | – | – | – | – | – | – | – |
| O=C(O)c1cc(O)c2c(c1)C(=O)c1cccc(O[C@@H]3O[C@H](CO)[C@@H](O)[C@H](O)[C@H]3O)c1C2=O [Rhein 8-Glucoside] | – | 0.64 | 0.434 | 25718.8 | 34038.2 | 17399.4 | 0.537 | – | – | – | – | – | – | – |
| O=C1c2c(O)cccc2[C@@H]([C@@H]2O[C@H](CO)[C@@H](O)[C@H](O)[C@H]2O)c2cc(CO)cc(O)c21 [Aloin B] | – | 0.434 | -0.315 | 20479 | 31560.5 | 9397.5 | – | – | – | – | – | 0.059 | – | – |
| Alpinetin | – | -0.059 | -0.789 | – | – | – | – | -0.424 | 14986.7 | 25635 | 4338.39 | – | – | – |
| O=C(O[C@H]1[C@H](Oc2c(-c3ccc(O)c(O)c3)oc3cc(O)cc(O)c3c2=O)O[C@H](CO)[C@H](O)[C@@H]1O)c1cc(O)c(O)c(O)c1 [2""-O-Galloylhyperin] | – | -0.93 | -0.817 | 9615.07 | 15187.3 | 4042.85 | – | -0.873 | – | – | – | – | – | – |
| CC(=O)OC(C)(C)CC(=O)O[C@H](CC=C(C)C)C1=CC(=O)c2c(O)ccc(O)c2C1=O [Beta-Acetoxyisovalerylshikonin] | – | -0.24 | 0.548 | 21041.3 | 23464.1 | 18618.6 | 0.154 | – | – | – | – | – | – | – |
| COc1ccc(-c2cc(=O)c3c(O)cc(O)cc3o2)cc1 [Acacetin] | – | -0.027 | -0.222 | 18211.5 | 26028.3 | 10394.7 | – | – | – | – | – | -0.124 | – | – |
| O=C1c2c(O)cccc2C([C@@H]2O[C@H](CO)[C@@H](O)[C@H](O)[C@H]2O)c2cc(CO)cc(O)c21 (some centres unmarked) [Aloin] | – | 0.178 | 0.236 | 21886.9 | 28489.7 | 15284.2 | 0.207 | – | – | – | – | – | – | – |
| O=C(O)[C@H]1O[C@@H](Oc2c(-c3ccc(O)cc3)oc3cc(O)cc(O)c3c2=O)[C@H](O)[C@@H](O)[C@@H]1O [Kaempferol 3-O-?-D-glucuronide] | – | 0.499 | 0.597 | 25744.8 | 32345.4 | 19144.3 | 0.548 | – | – | – | – | – | – | – |
| COc1cc(O)cc(OC)c1 [3,5-Dimethoxyphenol] | 0.275 | 0.645 | -0.096 | 22916.8 | 34097.4 | 11736.1 | – | – | – | – | – | – | – | – |
| C=CCc1ccc(O)c(OC)c1 [Eugenol] | -0.624 | -0.386 | -0.861 | – | 21709.5 | 3574.2 | – | – | 12641.9 | – | – | – | – | – |
| COc1cc(O)c2c(c1)O[C@H](c1ccccc1)CC2=O [Pinostrobin] | – | -0.797 | -0.047 | – | – | – | – | -0.422 | 14520.5 | 16779.4 | 12261.6 | – | – | – |

| Compound | AvZ (average z score of seeding, SDs from the mean level of seeding) | Z repl 1 | Z Repl 2 | av puncta (average of raw data 1 and 2) | raw data 1 (puncta) | raw data 2 (puncta) | av Z [1] | av Z [2] | av puncta [3] | raw data 1 (raw puncta) | raw data 2 (raw puncta) | av Z [4] | AvZ (average z score of seeding, SDs from the mean level of seeding) (listed as 6-Hydroxy melatonin) | av Z (average Z score of the two replicates, tau biosensor seeding, MCE Phenols Library screen) |
| --- | --- | --- | --- | --- | --- | --- | --- | --- | --- | --- | --- | --- | --- | --- |
| Gigantol | – | -0.874 | -0.481 | – | 15857.3 | 7628.39 | – | -0.677 | – | – | – | – | – | – |
| COc1cc2c(CCNC(C)=O)c[nH]c2cc1O [6-Hydroxymelatonin] | -0.003 | 0.345 | -0.35 | 19759.2 | 30495.8 | 9022.73 | – | – | – | – | – | – | −0.003 | – |
| CC(=O)c1cc(O)ccc1O [2,5-Dihydroxyacetophenone] | -0.464 | -0.264 | -0.663 | – | 23175.8 | 5682.84 | – | – | 14429.3 | – | – | – | – | – |
| COc1cc(O)c(C(=O)/C=C/c2ccc(O)cc2)c(OC)c1 [Flavokawain C] | – | -0.666 | -0.177 | – | – | – | – | -0.422 | 14614.7 | 18356 | 10873.4 | – | – | – |
| O=c1cc(-c2ccc(O)cc2)oc2cc(O)c(O)c(O)c12 [Scutellarein] | – | -0.619 | -1.142 | 9747.69 | 18922.2 | 573.179 | – | -0.88 | – | – | – | – | – | – |
| O=C(O)c1cc(O)c2cccc(O)c2n1 [Xanthurenic acid] | – | 0.734 | 1.586 | 32429.6 | 35156.1 | 29703.1 | – | – | – | – | – | – | – | 1.16 |
| O=Cc1cccc(O)c1 [3-Hydroxybenzaldehyde] | -0.137 | 0.08 | -0.354 | 18142.7 | 27305.1 | 8980.23 | – | – | – | – | – | – | – | – |
| O=C(CCCCCCCCc1ccc(O)c(O)c1)c1c(O)cccc1O [Malabaricone C] | – | -0.224 | 0.189 | 19220 | 23659 | 14781.1 | – | – | – | – | – | -0.018 | – | – |
| COc1cc(C=O)cc(OC)c1O [Syringaldehyde] | -0.318 | 0.142 | -0.778 | – | – | – | – | – | 16255.1 | 28055.2 | 4454.92 | – | – | – |
| CCCCC[C@H](O)CC(=O)CCc1ccc(O)c(OC)c1 [[6]-Gingerol] | – | 0.385 | 0.874 | 26534.4 | 30973.3 | 22095.4 | – | – | – | – | – | – | – | – |
| Rhodiosin | – | -1.331 | -1.146 | 5448.02 | 10373.6 | 522.423 | – | -1.239 | – | – | – | – | – | – |
| N[C@@H](Cc1ccc(O)c([N+](=O)[O-])c1)C(=O)O [3-Nitro-L-tyrosine] | 1.177 | 0.936 | 1.418 | 32750.4 | 37588.7 | 27912.2 | – | – | – | – | – | – | – | – |
| COc1cc(-c2coc3cc(O[C@@H]4O[C@H](CO)[C@@H](O)[C@H](O)[C@H]4O)c(OC)c(O)c3c2=O)ccc1O [Iristectorin B] | – | -0.293 | -0.887 | – | 22827.1 | 3295.67 | – | -0.59 | 13061.4 | – | – | – | – | – |
| COc1cc(O)c2c(c1)O[C@H](c1cc(O)cc(O)c1)CC2=O [Blumeatin] | – | -0.753 | -0.754 | – | 17305.9 | 4717.73 | – | -0.753 | 11011.8 | – | – | – | – | – |
| COc1cc([C@@H]2OC[C@@H]3[C@H]2CO[C@H]3c2cc(OC)c(O[C@@H]3O[C@H](CO)[C@@H](O)[C@H](O)[C@H]3O[C@@H]3OC[C@](O)(CO)[C@H]3O)c(OC)c2)cc(OC)c1O | – | 0.189 | 0.95 | 25767.5 | 28623.9 | 22911 | 0.57 | – | – | – | – | – | – | – |
| Oc1cc(O)c2cc(O)c(-c3ccc(O)c(O)c3)[o+]c2c1.[Cl-] [Cyanidin (Chloride)] | – | -1.789 | -1.05 | 3213.88 | 4876.54 | 1551.23 | – | -1.419 | – | – | – | – | – | – |
| C/C=C/c1cc(OC)c2c(c1)C(C)C(c1ccc(O)c(OC)c1)O2 (centres unmarked) [Dehydrodiisoeugenol] | – | 0.835 | 0.419 | 26809.6 | 36377.1 | 17242.2 | 0.627 | – | – | – | – | – | – | – |
